This note sets out measurements from PMC3904663 (Nature, 2013).

The assay addresses Drosophila melanogaster dopamine transporter (dDATcryst) (Drosophila melanogaster, UniProt Q7K4Y6, V74A/DEL164-206/V275A/V311A/L415A/G538L). The class given is binding.

Consider `CNCCC(Oc1ccccc1OC)c1ccccc1` (stereo not shown) [nisoxetine], for which the Kd (in general, the free concentration of one partner at which half of the binding sites on the other are occupied at equilibrium, for simple one-to-one binding) was 29 nM.
